Source: article PMC11096368, “Transcriptomic signature, bioactivity and safety of a non-hepatotoxic analgesic generating AM404 in the midbrain PAG region” (Scientific Reports, 2024)

Key:
[1] = LC–MS/MS detection of D10-SRP-001 and AM404 in the periaqueductal gray (PAG); format: in vivo, rats; settings: 32 mg/kg ip, 30 min post-injection, rats with CFA or vehicle
Procedure: Next, we sought to define the uptake of SRP-001 in the nociception area of the brain, the midbrain’s periaqueductal (PAG) area[42],[43]. Thirty min following ip-SRP-001 administration (32 mg/kg), the PAG was harvested and analyzed by LC/MS–MS. D10-SRP-001 was used to match the fragmentation pattern while monitoring analytes.
Deuterated compound D10-SRP-001 was synthesized by Olon Ricerca Bioscience (Concord, OH), and purity was determined to be > 99.9% by HPLC. This was used as pure analytical standard for detection of SRP-001 using an LC–MS/MS method. Similarly, pure analytical standard of AM404 (10 ng/mL) obtained from Cayman Chemical (Ann Arbor, MI) was used to characterize the full fragmentation pattern of AM404. […] Thirty min post-injection, the animals were sacrificed (same as in the CFA/von Frey model), their brains harvested, and the midbrain periaqueductal gray (PAG) region excised. SRP-001 or AM404 were extracted from the PAG using a liquid–liquid extraction method using 1:1 MeOH:H2O for LC–MS/MS and were loaded onto a liquid chromatography-tandem mass spectrophotometer for analysis. The mass spectrophotometer was operated in multiple reaction monitoring (MRM) mode using positive ion electrospray. D10-SRP-001 was detected by monitoring the m/z transition 416 → 186. AM404 was detected by monitoring the m/z transition 396 → 287.

[2] = system: Chinese Hamster ovary cells; test: In vitro mammalian chromosomal aberration assay; format: cell-based; settings: for Doses with cytotoxicity (≥ 45% reduction in cell growth index): non-activated 20-h exposure
Procedure: In the preliminary toxicity assay, the doses tested ranged from 0.0405 to 405 µg/mL (1 mM), which was the limit dose for this assay (Bioreliance, Rockville, MD USA).
The doses selected for evaluation of chromosome aberrations were 150, 300, and 405 µg/mL for the non-activated and S9-activated 4-h exposure groups; and 10, 40, and 80 µg/mL for the non-activated 20-h exposure group. […] The induction of structural aberrations was outside the 95% control limit of the historical negative control data of 0.00% to 2.79%. […] However, the induction of structural aberrations was within the 95% control limit of the historical negative control data of 0.00% to 4.28%. […] The induction of structural aberrations was outside the 95% control limit of the historical negative control data of 0.00% to 2.68%.
The induction of numerical aberrations was within the 95% control limit of the historical negative control data.

beagle dogs = test: Single oral dose (capsule) toxicity and pharmacokinetic study (non-GLP); format: in vivo; settings: single dose 300 mg/kg
Procedure: SRP-001 was prepared into capsules for oral administration. Three experimentally non-naïve Beagle dogs, at least 7 months old and weighing 7.7 to 10 kg prior to treatment initiation, were administered a single dose of 300 mg/kg SRP-001 (Calvert Labs/Altasciences, Scott Township, PA USA). On the day of dosing, animals were observed prior to dose administration, approximately 1–3 h post-dose, and once on day 2. Body weights were recorded for all animals prior to dose administration for the preparation of the capsules. Blood for bioanalytical evaluation was collected at selected timepoints on day 1. Following the completion of the study, surviving animals were not euthanized. They were returned to the Calvert colony for an appropriate washout period before possible use in a subsequent study. […] Plasma samples were collected at seven different time points post-dose.

[3] = 28-day oral toxicity study with 14-day recovery (GLP); format: in vivo, rats; settings: both sexes, Sprague-Dawley, rat, in vivo, oral; once daily for 28 days; read-out: No-adverse effect level (NOAEL)
Excerpt: (§1) We next set out to determine the toxicity and toxicokinetics of SRP-001 when administered via oral gavage once daily to Sprague–Dawley Rats for 28 d (Calvert Labs/Altasciences, Scott Township, PA USA). The study also assessed the reversibility of any toxicity observed with a 14-d recovery period. One hundred thirty-six experimentally naïve Sprague–Dawley rats (68 males and 68 females), 8 weeks old and weighing 167–295 g for males and females at the outset of the study, were assigned to toxicology treatment groups (Groups 1–4) or toxicokinetic groups (Groups 5–7). For toxicology groups, 10 animals/sex/dose were administered 0, 300, 900, or 1500 mg/kg/d SRP-001. An additional 5 animals/sex/dose in Groups 1 and 4 were targeted for a 14-d recovery period and euthanized on day 43. For toxicokinetic groups, 6 animals/sex/dose were administered 300, 900, or 1500 mg/kg/d SRP-001. Mortality/morbidity was performed twice daily and once prior to scheduled sacrifice. Animals in Groups 1–4 were observed prior to each dose administration and 1–3 h post-dose. Animals in Groups 1–4 were also observed once daily on non-dosing days and once prior to scheduled sacrifice. Body weights were recorded prior to randomization/selection, prior to dose administration on day 1, and weekly thereafter. Food consumption was determined weekly for animals in Groups 1–4. Ophthalmology examinations were performed before treatment initiation and during the last week of dosing for animals in Groups 1–4. The functional observational battery was assessed for 5 animals/sex/group in Groups 1–4 once prior to dosing and at 1–2 h following dose administration on day 1. Blood for evaluation of hematology, coagulation, and clinical chemistry and urine for urinalysis was collected from animals in Groups 1–4 on day 29 or day 43. Blood for toxicokinetic evaluation was collected from animals in Groups 5–7 at selected timepoints on days 1 and 28. All surviving animals in Groups 1–4 were sacrificed on day 29 or day 43. Selected tissues were harvested at necropsy, selected organs weighed, and selected tissues evaluated microscopically.
(§2) Following dosing, the reversibility of any toxicity observed was assessed with a 14-d recovery period of animals receiving 0 or 1500 mg/kg of SRP-001. SRP-001-related clinical signs included red staining around the forepaw, forelimbs, mouth, muzzle, and nose and brown-staining in the anogenital area. […] The majority of clinical signs were observed during the first 3 weeks of dosing, and by day 28, the majority of the animals appeared normal. […] These differences remained within or close to the historically normal ranges. Statistically significant differences in total protein, globulin, and mean corpuscular hemoglobin remained present in males after the recovery period, although at a smaller magnitude. SRP-001-related microscopic findings were limited to the liver and included minimal to mild centrilobular hepatocellular hypertrophy in both sexes at ≥ 300 mg/kg/d. This finding correlated with statistically significant increases in liver weights in both sexes.
(§3) Exposure to SRP-001 following oral gavage dosing at 300, 900, and 1500 mg/kg SRP-001 was dose-dependent, increasing with escalating doses following a single dose. […] Based on the parameters observed, the no-adverse effect level (NOAEL) of SRP-001, when administered once daily for 28 d to Sprague–Dawley rats, was 1500 mg/kg.

Sprague Dawley rats = test: as above; format: in vivo
Excerpt: as §1, §2, §3

Structure (SMILES)	AM404 production in the periaqueductal gray region [1]	Cytotoxicity (≥ 45% reduction in cell growth index) [2]	Induction of numerical chromosomal aberrations [2]	Induction of structural chromosomal aberrations [2]	Structural aberrations ([2]; Chinese hamster, 20 h, 80 µg/mL) [%]	Dose with cytotoxicity (≥ 45% reduction in cell growth index) ([2]; chromosome aberration assay, non-activated 4-h exposure) [µg/mL]	Doses with cytotoxicity (≥ 45% reduction in cell growth index) ([2]; chromosome aberration assay) [µg/mL]	Doses with cytotoxicity (≥ 45% reduction in cell growth index) ([2]; preliminary toxicity assay) [µg/mL]	Bioavailability (bioanalytical analysis of plasma) (beagle dogs)	Tolerability (beagle dogs)	NOAEL at 28 d [3] [mg/kg]	Exposure versus dose (Sprague Dawley rats; 300, 900, 1500 mg/kg, single dose and 28 days)	Body weight, food consumption, functional observation battery, ophthalmology, coagulation, urinalysis (Sprague Dawley rats; 300, 900, 1500 mg/kg/d)	Doses without treatment-related adverse effects (Sprague Dawley rats; 28 days of daily oral doses, rats)	Doses with minimal to mild centrilobular hepatocellular hypertrophy (non-adverse) (Sprague Dawley rats; both sexes, 28 d) [mg/kg/day]
CC(=O)Nc1ccc(O)cc1 [ApAP, acetaminophen, reference compound]	diminished														
CCN(CC)C(=O)c1ccccc1S(=O)(=O)NCC(=O)Nc1ccc(O)cc1 [SRP-001, N,N-diethyl-2-[[2-(4-hydroxyanilino)-2-oxo-ethyl]sulfamoyl]benzamide]		not observed at any dose	negative	positive	3.7	405	≥ 70	≥ 122	poor bioavailability	well tolerated	1500	dose-dependent	no SRP-001-related effects	up to 1500 mg/kg/day	≥ 300
